Patent publication US20210177812A1, “METHODS OF SUPPRESSING MYELOID-DERIVED SUPPRESSOR CELLS IN PATIENTS” (MediciNova, Inc., priority 2018, published 2021)
Entries after “also recorded” stand apart in the source; their conditions may differ. Where two headings read alike, the source gives them in different places.

Assays:
[1] = system: mouse model of glioma GL261; assay: Flow cytometry of MDSCs and T-cells in tumor, blood, spleen and bone marrow, mouse model of glioma GL261; assay type: in vivo; conditions: day 19; for monocytic MDSCs (M-MDSCs) in the tumor: ibudilast dosed 50 mg/kg i.p. daily from day 5 (AV1013 dose not given), vs vehicle
Experimental: (§1) Ibudilast was tested in vivo using the mouse model of glioma GL261. Cells were implanted on day 0 and then a 5-day engrafiment period was used to ensure that the treatment being tested was performing by inhibiting tumor growth and not engraftment. After 5 days the mice were intraperitoneally injected daily with ibudilast at 50 mg/kg in a vehicle consisting of PEG 400 and (2-hydroxypropyl)-p-cyclodextrin to enhance solubility with low toxicity or alternatively mice were treated with AV1013. At day 19 post injection, 3 mice from each group (ibudilast, AV1013 or vehicle) were sacrificed for flow cytometry analysis of MDSCs, T-cells, and NK cells in the tumor, blood, spleen, and bone marrow.

MDSCs = assay: T-cell proliferation in the presence of ibudilast-treated MDSCs from GL261/bone marrow co-culture; assay type: cell-based, mouse; conditions: CFSE-labeled CD3/28-activated splenic T-cells, 3 days with MDSCs; n=6 mice, 2 experiments, P=0.001
Experimental: (§2) MDSCs were prepared through a co-culture process illustrated in FIG. 1. Glioma cell line GL261 is cultured together with freshly isolated bone marrow for 4 days. During this 4-day process the glioma cell line initiates subsets of the naïve monocytes within the bone marrow to become both monocytic MDSCs (M-MDSCs) and granulocytic MDSCs (G-MDSCs) distinguished via flow cytometry using CD11b, Ly6C, and GR1. The GR1+ population was harvested at day 4 via magnetic bead separation. Once isolated the MDSCs were combined with freshly isolated splenic T-cells which were labeled with CFSE and activated using CD3/28 activation beads. The T-cell proliferation was then determined 3 days after being combined with MDSCs by measuring the fluorescence intensity of each CD3 T-cell after 3 days of being cultured with MDSCs (FIG. 2).

[2] = system: MIF/CD74 signaling pathway; assay: mRNA expression of CD45+ cells isolated from vehicle- and ibudilast-treated tumors; assay type: in vivo, mouse; conditions: n=3 per group
Experimental: as §1
Further analysis was conducted on the mRNA expression of CD45+ cells isolated from vehicle- and ibudilast-treated tumors.

GL261 = assay: In vitro treatment of co-culture for 24 h, MCP-1 (CCL2) secretion; assay type: cell-based, mouse; conditions: co-culture treated 24 h in vitro
MCP-1 = assay: Serum cytokine analysis at day 19 of treated GL261 mice; assay type: in vivo, mouse; conditions: day 19, 3 animals per group
Experimental: as §1

[3] = system: mouse model of glioma GL261; assay: Kaplan Meier survival analysis, mouse model of glioma GL261; assay type: in vivo; conditions: n=10 per group; vehicle median 19 days; Log Rank p=0.016
Experimental: as §1
The median survival times for vehicle-treated mice (n=10) was 19 days whereas ibudilast-treated mice (n=10) were undetermined at this point (Log Rank p=0.016, […]) (FIG. 14).

M-MDSCs = assay: MDSC generation in co-cultures with MIF inhibitors quantified by flow cytometry; assay type: cell-based, mouse; conditions: GL261/bone marrow co-culture
Experimental: as §2

[4] = in vivo, cited from earlier work

Compound | monocytic MDSCs (M-MDSCs) in the tumor [1] | suppressive abilities of MDSCs on T-cell proliferation (MDSCs) | CD8 T-cells ([1]; 50 mg/kg i.p. daily, FIG. 7) | CD4 T-cells ([1]; 50 mg/kg i.p. daily, FIG. 8) | monocytic MDSCs (M-MDSCs) in the blood ([1]; blood, 50 mg/kg i.p. daily from day 5, 50 mg/kg) | monocytic MDSCs (M-MDSCs) in the marrow ([1]; bone marrow, 50 mg/kg i.p. daily from day 5, 50 mg/kg) | monocytic MDSCs (M-MDSCs) in the spleen ([1]; spleen, 50 mg/kg i.p. daily from day 5, 50 mg/kg) | immune suppressive T-regulatory cells ([1]; tumor vs blood, marrow, spleen, 50 mg/kg i.p. daily) | monocytic MDSCs (M-MDSCs) in the tumor ([1]; 50 mg/kg) | CCR2 mRNA expression [2] | CD74 mRNA expression [2] | MCP-1 (CCL2) mRNA expression [2] | MIF mRNA expression [2] | myeloid genes mRNA expression [2] | secretion of MCP-1 (CCL2) (GL261) | serum MCP-1 level (MCP-1) | survival versus vehicle [3] | M-MDSC generation (M-MDSCs) | CNS distribution / penetration [4] | CNS distribution / penetration ([4]; listed as Ibudilast)
CC(N)C(=O)c1c(C(C)C)nn2ccccc12 (centres unmarked) [AV1013] | no significant suppression |  |  |  |  |  |  |  |  |  |  |  |  |  |  |  |  |  |  | 
CC(C)C(=O)c1c(C(C)C)nn2ccccc12 [ibudilast, 3-isobutyryl-2-isopropylpyrazolo(1,5-a)pyridine] |  | effectively reduced the suppressive abilities of MDSCs | decreased | increased | not altered; also recorded: not M-MDSCs associated with blood, spleen or bone marrow | not altered; also recorded: not M-MDSCs associated with blood, spleen or bone marrow | not altered; also recorded: not M-MDSCs associated with blood, spleen or bone marrow | reduced only in the tumors | reduced; also recorded: reduces M-MDSCs associated with tumor | significantly reduced | significantly reduced | significantly reduced | not reduced | Overall reductions | reduced GLP261 secretion MCP-1 (CCL2) in a dose-dependent manner; also recorded: reduced GL261 secretion of MCP-1(ccl2) in a dose dependent manner | reduction | Significant survival advantages | ability to reduce M-MDSC generation | good CNS penetration | distributes well to the CNS
